Experimental data: patent publication US20240067693A1, “POLYPEPTIDES AND USES THEREOF” (MEDIMMUNE LIMITED, priority 2020, published 2024)
Numbered stars: 1 amine (or outer) side, 2 acyl side, 3 side chain; on linkers, the order of the positions; unused ones are H or OH. Bridge positions count the residues as written; N and C are the ends. Square brackets hold non-standard residues; d marks the D form. Side chains are listed from the residue outwards. Peptide text beside a SMILES is read from it. * marks the point of attachment. C18 diacid = O=C(O)CCCCCCCCCCCCCCCCC(=O)*; γGlu = O=C(O)[C@H](CCC(=O)[*:2])N[*:1]; Aib = CC(C)(N)C(=O)O

Legend:
[1] = target: T1, human calcitonin receptor (hCTR) (Homo sapiens, UniProt P30988); assay: cAMP production in 1321N1 cells with stable recombinant expression of human calcitonin receptor (hCTR); type: cell-based; details: cAMP, 1321N1 cells, assay buffer with 0.1% BSA; read-out: EC50 (pM) hCTR
T1 construct: expressed in transfected cells
T1 sequence (P30988 25-474): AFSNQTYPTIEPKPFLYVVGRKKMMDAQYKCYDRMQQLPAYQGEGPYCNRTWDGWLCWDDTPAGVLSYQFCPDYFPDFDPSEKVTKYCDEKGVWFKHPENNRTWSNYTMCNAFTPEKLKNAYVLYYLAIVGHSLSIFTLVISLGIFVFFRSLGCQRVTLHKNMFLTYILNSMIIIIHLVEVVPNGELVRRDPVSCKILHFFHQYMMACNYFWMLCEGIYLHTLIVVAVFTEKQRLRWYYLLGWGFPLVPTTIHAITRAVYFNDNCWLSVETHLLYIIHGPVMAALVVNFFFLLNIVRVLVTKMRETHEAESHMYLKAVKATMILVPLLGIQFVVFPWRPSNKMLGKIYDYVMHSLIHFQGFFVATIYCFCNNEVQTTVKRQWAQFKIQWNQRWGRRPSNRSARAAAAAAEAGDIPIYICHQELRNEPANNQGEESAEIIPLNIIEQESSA
Outline: (§1)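 EC50 values come from 4-parameter logistic fits of HTRF cAMP signal, normalised to maximal calcitonin or amylin effect. Peptides were tested in duplicate for 30 min at RT in IBMX-containing (0.5 mM) BSA/HEPES buffer pH 7.4 on stable 1321N1 (human CTR, AMYR3) or HEK (rat CTR, AMYR3) lines.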

[2] = target: T2, human amylin receptor (calcitonin receptor co-expressed with receptor activity modifying protein, RAMP3) (hAMYR3) (Homo sapiens, UniProt O60896+P30988); assay: cAMP production in 1321N1 cells with stable recombinant expression of human amylin receptor (hAMYR3); type: cell-based; details: for Ratio (selectivity hAMYR vs hCTR, ratio of EC50 values at the two receptors): EC50 hCTR / EC50 hAMYR3; for EC50: cAMP, 1321N1 cells, assay buffer with 0.1% BSA, read-out: EC50 (pM) hAMYR3
T2 construct: expressed in transfected cells
T2 sequence (P30988 25-474): T1 sequence (P30988 25-474)
T2 sequence (O60896 24-148 partner): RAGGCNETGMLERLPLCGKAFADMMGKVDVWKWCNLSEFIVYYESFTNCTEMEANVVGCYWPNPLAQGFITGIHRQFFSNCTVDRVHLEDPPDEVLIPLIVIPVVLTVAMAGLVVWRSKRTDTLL
Outline: as §1

| EC50 [1] [pM] | Ratio (selectivity hAMYR vs hCTR, ratio of EC50 values at the two receptors) [2] | EC50 [2] [pM] | SMILES |
| --- | --- | --- | --- |
| 16000 | 99 | 161 | CC[C@H](C)[C@H](NC(=O)[C@@H]1CCCN1C(=O)CNC(=O)[C@H](Cc1ccccc1)NC(=O)[C@H](CC(N)=O)NC(=O)C(C)(C)NC(=O)[C@H](CO)NC(=O)[C@H](CO)NC(=O)[C@H](Cc1c[nH]cn1)NC(=O)[C@H](CCCNC(=N)N)NC(=O)[C@H](CC(C)C)NC(=O)[C@H](Cc1ccccc1)NC(=O)[C@H](CC(N)=O)NC(=O)[C@H](C)NC(=O)[C@H](CC(C)C)NC(=O)[C@H](CCCNC(=N)N)NC(=O)[C@H](CCC(N)=O)NC(=O)[C@@H](NC(=O)[C@H](C)NC(=O)[C@@H]1CSSC[C@H](NC(=O)[C@@H](N)CCCCNC(=O)CC[C@H](NC(=O)CC[C@H](NC(=O)CCCCCCCCCCCCCCCCC(=O)O)C(=O)O)C(=O)O)C(=O)N[C@@H](CC(N)=O)C(=O)N[C@@H]([C@@H](C)O)C(=O)N[C@@H](C)C(=O)N[C@@H]([C@@H](C)O)C(=O)N1)[C@@H](C)O)C(=O)N[C@@H](CC(C)C)C(=O)N1CCC[C@H]1C(=O)N1CCC[C@H]1C(=O)N[C@H](C(=O)N[C@@H](CC(N)=O)C(=O)N[C@H](C(=O)NCC(=O)N[C@@H](CO)C(=O)N[C@@H](CC(N)=O)C(=O)N[C@H](C(=O)N[C@@H](Cc1ccc(O)cc1)C(N)=O)[C@@H](C)O)C(C)C)[C@@H](C)O [Peptide 75, K(γE-γE-C18diacid)[CNTATC]ATQRLANFLRHSS(Aib)NFGPILPPTNVGSNTY-amide] (H-K([γGlu-γGlu-C18 diacid])CNTATCATQRLANFLRHSS[Aib]NFGPILPPTNVGSNTY-NH2; disulfide 2-7) |
| 22300 | 107 | 209 | CC[C@H](C)[C@H](NC(=O)[C@@H]1CCCN1C(=O)CNC(=O)[C@H](Cc1ccccc1)NC(=O)[C@H](CC(N)=O)NC(=O)C(C)(C)NC(=O)[C@H](CO)NC(=O)[C@H](CO)NC(=O)[C@H](Cc1c[nH]cn1)NC(=O)[C@H](CCCNC(=N)N)NC(=O)[C@H](CC(C)C)NC(=O)[C@H](Cc1ccccc1)NC(=O)[C@H](CC(N)=O)NC(=O)[C@H](C)NC(=O)[C@H](CC(C)C)NC(=O)[C@H](CCCNC(=N)N)NC(=O)[C@H](CCC(N)=O)NC(=O)[C@@H](NC(=O)[C@H](C)NC(=O)[C@@H]1CSSC[C@H](NC(=O)[C@@H](N)CCCCNC(=O)CC[C@H](NC(=O)CCCCCCCCCCCCCCCCC(=O)O)C(=O)O)C(=O)N[C@@H](CC(N)=O)C(=O)N[C@@H]([C@@H](C)O)C(=O)N[C@@H](C)C(=O)N[C@@H]([C@@H](C)O)C(=O)N1)[C@@H](C)O)C(=O)N[C@@H](CC(C)C)C(=O)N1CCC[C@H]1C(=O)N1CCC[C@H]1C(=O)N[C@H](C(=O)N[C@@H](CCCNC(=N)N)C(=O)N[C@H](C(=O)NCC(=O)N[C@@H](CO)C(=O)N[C@@H](CC(N)=O)C(=O)N[C@H](C(=O)N[C@@H](Cc1ccc(O)cc1)C(N)=O)[C@@H](C)O)C(C)C)[C@@H](C)O [Peptide 76, K(γE-C18diacid)[CNTATC]ATQRLANFLRHSS(Aib)NFGPILPPTRVGSNTY-amide] (H-K([γGlu-C18 diacid])CNTATCATQRLANFLRHSS[Aib]NFGPILPPTRVGSNTY-NH2; disulfide 2-7; N-terminus assumed) |
| 2520 | 11 | 231 | CC[C@H](C)[C@H](NC(=O)[C@@H]1CCCN1C(=O)CNC(=O)[C@H](Cc1ccccc1)NC(=O)[C@H](CC(N)=O)NC(=O)C(C)(C)NC(=O)[C@H](CO)NC(=O)[C@H](CO)NC(=O)[C@H](Cc1c[nH]cn1)NC(=O)[C@H](CCCNC(=N)N)NC(=O)[C@H](CC(C)C)NC(=O)[C@H](Cc1ccccc1)NC(=O)[C@H](CC(N)=O)NC(=O)[C@H](C)NC(=O)[C@H](CC(C)C)NC(=O)[C@H](CCCNC(=N)N)NC(=O)[C@H](CCC(N)=O)NC(=O)[C@@H](NC(=O)[C@H](C)NC(=O)[C@@H]1CSSC[C@H](NC(=O)[C@@H](N)CCCCNC(=O)CC[C@H](NC(=O)CC[C@H](NC(=O)CCCCCCCCCCCCCCCCC(=O)O)C(=O)O)C(=O)O)C(=O)N[C@@H](CC(N)=O)C(=O)N[C@@H]([C@@H](C)O)C(=O)N[C@@H](C)C(=O)N[C@@H]([C@@H](C)O)C(=O)N1)[C@@H](C)O)C(=O)N[C@@H](CC(C)C)C(=O)N1CCC[C@H]1C(=O)N1CCC[C@H]1C(=O)N[C@H](C(=O)N[C@@H](CCCNC(=N)N)C(=O)N[C@H](C(=O)NCC(=O)N[C@@H](CO)C(=O)N[C@@H](CC(N)=O)C(=O)N[C@H](C(=O)N[C@@H](Cc1ccc(O)cc1)C(N)=O)[C@@H](C)O)C(C)C)[C@@H](C)O [Peptide 77, K(γE-γE-C18diacid)[CNTATC]ATQRLANFLRHSS(Aib)NFGPILPPTRVGSNTY-amide] (H-K([γGlu-γGlu-C18 diacid])CNTATCATQRLANFLRHSS[Aib]NFGPILPPTRVGSNTY-NH2; disulfide 2-7; N-terminus assumed) |
| 3150 | 11 | 288 | CC(C)C[C@H](NC(=O)[C@H](CCCNC(=N)N)NC(=O)[C@H](CCC(N)=O)NC(=O)[C@@H](NC(=O)[C@H](C)NC(=O)[C@@H]1CSSC[C@H](NC(=O)[C@H](CCCCN)NC(=O)[C@@H](N)CCCCNC(=O)CC[C@H](NC(=O)CCCCCCCCCCCCCCCCC(=O)O)C(=O)O)C(=O)N[C@@H](CC(N)=O)C(=O)N[C@@H]([C@@H](C)O)C(=O)N[C@@H](C)C(=O)N[C@@H]([C@@H](C)O)C(=O)N1)[C@@H](C)O)C(=O)N[C@@H](C)C(=O)N[C@@H](CC(N)=O)C(=O)N[C@@H](Cc1ccccc1)C(=O)N[C@@H](CC(C)C)C(=O)N[C@H](C(=O)N[C@@H](Cc1c[nH]cn1)C(=O)N[C@@H](CO)C(=O)N[C@@H](CO)C(=O)NC(C)(C)C(=O)N[C@@H](CC(N)=O)C(=O)N[C@@H](Cc1ccccc1)C(=O)NCC(=O)N1CCC[C@H]1C(=O)NC(C)(C)C(=O)N[C@@H](CC(C)C)C(=O)N1CCC[C@H]1C(=O)N1CCC[C@H]1C(=O)N[C@H](C(=O)N[C@@H](CC(N)=O)C(=O)N[C@H](C(=O)NCC(=O)N[C@@H](CO)C(=O)N[C@@H](CC(N)=O)C(=O)N[C@H](C(=O)N[C@@H](Cc1ccc(O)cc1)C(N)=O)[C@@H](C)O)C(C)C)[C@@H](C)O)C(C)C [Peptide 78, K(γE-C18diacid)K[CNTATC]ATQRLANFLVHSS(Aib)NFGP(Aib)LPPTNVGSNTY-amide] (H-K([γGlu-C18 diacid])KCNTATCATQRLANFLVHSS[Aib]NFGP[Aib]LPPTNVGSNTY-NH2; disulfide 3-8; N-terminus assumed) |
